Legend:
TNF [1] = assay: TNF production in DC2.4 cell line, intracellular staining, flow cytometry; type: cell-based, murine
Experimental: Intracellular staining was performed to assess TNF production.
FIG. 8 illustrates that indole synergizes with TGF-β to inhibit TNF production in DCs. Flow cytometric analysis was performed on DC2.4 cells treated with indole or DMF control for 24 hours in the presence or absence of TGF-β (10 ng/ml). […] Shaded gray areas represent unstimulated samples. Representative histograms from one of three independent experiments.
One important way that DCs shape local immune responses is through the production of cytokines. Cytokine production was addressed in indole-conditioned dendritic cells, first using the murine dendritic cell line, DC2.4. Cells pre-treated with physiologically relevant doses of indole produced less TNF upon stimulation with the bacterial surface component and TLR4 ligand, LPS. Production of TNF was reduced by 50% following treatment with 1 mM indole (FIG. 1). This response is biologically important as LPS serves as the prototypical endotoxin, present on the surface of virtually all gram-negative bacteria including gut-resident commensal strains.

DCs [2] = assay: DC viability: lactate dehydrogenase release and propidium iodide uptake; details: versus solvent controls
TLR4 = assay: Surface TLR4 expression on DC2.4 and BMDC; details: DC2.4 and BMDC 18 hours indole, BMDC indole from day 3
DCs [3] = assay: Antigen-uptake assay in DCs; details: FITC-labeled OVA particles
Stat3 [4] = assay: IL-6 induced pSTAT3 signaling in splenic DCs; type: cell-based, mouse; details: splenic DCs, 1 mM TDMM 24 hours, IL-6 (10 ng/ml) 30 minutes
Experimental: Briefly, flow cytometric analysis was performed on splenic DCs conditioned with the indicated TDMMs for 24 hours and then subsequently stimulated with 10 ng/ml IL-6 for 30 minutes.

Salmonella Typhimurium = assay: Colonization of mice by Salmonella exposed to indole; type: in vivo; details: Salmonella exposed to indole compared to solvent-treated controls
TGF-β = TGF-β production by BMDC cultures (ELISA); type: cell-based, mouse; details: indole-conditioned DCs
Experimental: To determine whether this was a specific downregulation of pro-inflammatory cytokines, production of the canonical DC-produced anti-inflammatory cytokines, IL-10 and TGF-β, was also examined.
Cytokine concentration in the supernatant of BMDC cultures was assessed using commercially available ELISA kits for IL-10 (Peprotech) and TGF-β (eBioscience) per the manufacturer's instructions.

Stat3 [5] = assay: IL-6-induced phospho-Stat3 in BMDMs; type: cell-based, mouse
Experimental: BMDMs were treated with indole or DMF control for 18 hours, then stimulated with IL-6 (10 ng/ml) for the given times. Cells were stained for phospho-Stat3 and analyzed by flow cytometry.
Similarly, the ex vivo indole conditioning of splenocytes was repeated with tissues from AhR-deficient and wild-type mice and analyzed TNF production. […] Importantly, in this set of experiments splenocytes were stimulated with LPS, heat-killed S. typhimurium, and CpG. […] Specifically, BMDMs were generated from WT or AhR-KO mice and treated with indole (1 mM) or DMF control for 18 hours. BMDMs were then stimulated with IL-6 (10 ng/ml) for the given times and stained for phospho-Stat3, which was detected by flow cytometry.

TNF [6] = assay: TNF production in BMDMs, intracellular staining, flow cytometry; type: cell-based, mouse
Experimental: BMDMs were treated with indole or DMF control for 18 hours or 4 hours, followed by stimulation with LPS (2 ug/ml or 250 ng/ml) for 4 hours in the presence of Golgiplug. BMDMs were then stained for intracellular TNF or IL-12 and analyzed by flow cytometry.
First, pro-inflammatory cytokine production in macrophages was investigated. […] In the DC study described herein, DCs were typically conditioned with indole during their development from bone marrow precursors in order to mimic the proximity of DC progenitor cells to indole in the intestinal microenvironment during development. […] BMDMs were treated for 18 hours with indole, followed by a 4 hour stimulation with either a very high (2 ug/ml) or low (250 ng/ml) dose of LPS.
Additionally, to determine if recently arrived macrophage precursors might also be affected, BMDMs were next treated for just 4 hours with indole, followed by a […] stimulation with the same LPS concentrations.
To address the question of indole and AhR dependence in macrophages, experiments using BMDMs derived from AhR-knockout mice were run alongside wild-type littermate controls. Specifically, flow cytometric analysis of BMDMs was performed on WT or AhR-KO mice and treated with indole or DMF control for 18 hours. BMDMs were stimulated for 4 hours with LPS (50 ng/ml) in the presence of Golgiplug, then stained for intracellular TNF (left panels) and IL-12 (right panels).
The inventors performed a series of assays where bone marrow derived macrophages (BMDMs), bone marrow derived dendritic cells (BMDCs), and splenic dendritic cells (splenic DCs), were exposed to a series of TDMMs, including indole, indole-3-acetate (I3AT), 5-hydroxyindole (5HI), and indole-3-pyruvate (I3P), as well as indole-3-carbinol (I3C; a plant derived compound) to be used for a positive control (1 mM for 24 hours). The BMDMs and BMDCs were stimulated with LPS for 4 hours and assayed at day 7 for expression of various pro-inflammatory cytokines. In a similar assay, the BMDMs and BMDCs were stimulated with LPS or CpG, respectively, for 15 minutes and assayed for pAKT and pERK signaling, which is a reflection of pro-inflammatory response.
Bone marrow was harvested as described above and cultured at a density of 1×10^6 cells in 10 ml complete media supplemented with 10 ng/ml M-CSF (Peprotech) in 100 mm×15 mm petri dishes. Media with cytokine was replenished on day 3. Adherent and semi-adherent cells were recovered on day 7, plated, and treated with indole prior to downstream experiments.

c1ccc2[nH]ccc2c1 [Indole, indole]
reduction of TNF production (TNF [1]; DC2.4, 1 mM indole pre-treatment, LPS stimulation): 50% | inhibition of TNF production with concurrent TGF-β treatment (TNF [1]; DC2.4, indole 24 hours with TGF-β (10 ng/ml), LPS 1 ug/ml 4 hours): marked synergistic effect | cytotoxicity in DCs (DCs [2]): did not induce cytotoxicity | surface TLR4 expression on DCs (TLR4): does not alter surface TLR4 expression | particle uptake by DCs (DCs [3]): did not alter particle uptake | IL-6 induced pSTAT3 expression, CD4+ DCs (Stat3 [4]): ↓↓ | IL-6 induced pSTAT3 expression, CD4− DCs (Stat3 [4]): ↓↓ | competitiveness of Salmonella in colonizing mice (Salmonella Typhimurium): less competitive | TGF-β production (TGF-β): Neither IL-10 nor TGF-β production were affected | reduction of Stat3 signaling (Stat3 [5]; BMDMs from WT or AhR-KO mice, 1 mM indole 18 hours, IL-6 10 ng/ml): over 60% | reduction of number of macrophages undergoing Stat3 phosphorylation (Stat3 [5]; BMDMs, overnight indole, IL-6 stimulation): 50% | reduction of TNF production (TNF [6]; BMDMs from WT or AhR-KO mice, 1 mM indole 18 hours, LPS 50 ng/ml 4 hours): approximately 2 fold | TNF (TNF [6]; BMDMs, 1 mM TDMM 24 hours, LPS 1 ug/ml 4 hours): ↓↓↓ | inhibition of TNF production (TNF [6]; BMDMs, 1 mM indole 18 hours, LPS 2 ug/ml or 250 ng/ml 4 hours): ~2 fold

Source: patent US11612586B2, “Indole regulation of antigen presenting cells” (THE TEXAS A&M UNIVERSITY SYSTEM, priority 2016, dated 2023)
